Test results as given in paper PMC13266999, “Designing Antibiotics with Inherent Resistance to Efflux as a Strategy to Revive Discovery against Multidrug-Resistant Pathogens” (Journal of Medicinal Chemistry, 2026).
In brackets after ≈: the same amount, converted by molar mass. Like-named read-outs stand apart in the source and are kept apart here.

Columns and labels:
S. pyogenes = test: MIC (microbroth dilution); assay type: cell-based, Streptococcus pyogenes; conditions: for MIC: Streptococcus pyogenes
Protocol: All bacteria were maintained on tryptic soy agar (TSA), except Streptococcus spp., which were maintained on Columbia agar plates containing 5% horse blood. All bacterial assays were carried out in tryptic soy broth (TSB), except for Streptococcus spp. which were grown in cation-adjusted Mueller Hinton broth containing 2.5% lysed horse blood. Bacteria were grown to stationary phase in liquid culture overnight, with shaking at 200 rpm, before being back diluted to the relevant starting concentration for each assay below. MICs were measured by the microbroth dilution method. […] Absorbance at OD600 was read on a CLARIOstar spectrophotometer (BMG Labtech) and the MIC was defined as the minimum concentration of compound where no visible growth was detected. The compounds were prepared as a DMSO stock and equivalent concentrations of DMSO had no effect on bacterial growth. MICs were also performed in the presence of the outer membrane permeator, polymyxin b nonapeptide (PMBN) following the same MIC method but with the following variation. The 2-fold dilution series of compound was prepared as above, then 50 μL of PMBN at a final concentration of 30 μg/mL was added to relevant wells, while 50 μL/well of blank media was added to the remaining wells. Bacteria were then added at 50 μL/well for a starting concentration as above. Thirty μg/mL of PMBN had no effect on bacterial growth. The MICs were read and defined as above. All animal procedures were performed by the contract research organization Pharmacology Discovery Services Taiwan in accordance with the Guide for the Care and Use of Laboratory Animals. The procedures were approved by the Institutional Ethics Committee of Pharmacology Discovery Services Taiwan, Ltd. (approval no. AB127662), in compliance with animal welfare legislation in Taiwan.

S. aureus = test: MIC (microbroth dilution); assay type: cell-based, Staphylococcus aureus; conditions: for MIC: read-out: MIC
Procedure, shortened: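 Broth microdilution MICs, defined as lowest compound level without visible growth (OD600 read), on bacteria grown overnight to stationary phase then diluted. Twofold compound dilutions; some wells also received PMBN, final 30 μg/mL, to permeabilize the outer membrane.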

Cc1cc(C)nc(N[C@@H]2CCN(c3c(F)cc4c(=O)c(C(=O)O)cn5c4c3OC[C@@H]5C)C2)n1 [Compound 50, (S)-10-((R)-3-((4,6-Dimethylpyrimidin-2-yl)amino)pyrrolidin-1-yl)-9-fluoro-3-methyl-7-oxo-2,3-dihydro-7H-[1,4]oxazino[2,3,4-ij]quinoline-6-carboxylic acid]
MIC (S. pyogenes; 8198, read-out: MIC): ≤ 0.03 µg/mL | MIC (S. pyogenes; 12048, read-out: MIC): ≤ 0.03 µg/mL | MIC (S. pyogenes; 13736, read-out: MIC): ≤ 0.03 µg/mL | MIC (S. pyogenes; 13737): 0.125 µg/mL (≈ 0.276 µM) | MIC (S. pyogenes; 13738): 0.125 µg/mL (≈ 0.276 µM) | MIC (S. pyogenes; 80661, read-out: MIC): ≤ 0.03 µg/mL | MIC (S. pyogenes; 81017, read-out: MIC): 0.06 µg/mL (≈ 0.132 µM) | MIC (S. pyogenes; 82434, read-out: MIC): ≤ 0.03 µg/mL | MIC (S. pyogenes; 82896, read-out: MIC): ≤ 0.03 µg/mL | MIC (S. pyogenes; 83581, read-out: MIC): ≤ 0.03 µg/mL | MIC (S. pyogenes; 84285, read-out: MIC): ≤ 0.03 µg/mL | MIC (S. pyogenes; 86519, read-out: MIC): 0.06 µg/mL (≈ 0.132 µM) | MIC (S. pyogenes; ATCC14289, ATCC 14289): 0.125 µg/mL (≈ 0.276 µM) | MIC (S. pyogenes; ATCC19615, ATCC 19615): 0.125 µg/mL (≈ 0.276 µM) | MIC (S. pyogenes; n = 12 isolates, read-out: modal MIC): ≤ 0.03 µg/mL | MIC range (S. pyogenes; n = 12 isolates): ≤ 0.03 to 0.125 µg/mL | fold improvement in activity compared to 46 (S. aureus): 2–8 fold | fold difference in MIC, SA-1199B vs SA-1199 (S. aureus; NorA-overexpressing vs WT): no difference | MIC (S. aureus; Staphylococcus aureus, 1199, + 4% albumin): 0.06 µg/mL | MIC (S. aureus; Staphylococcus aureus, 1199b, + 4% albumin): 0.125 µg/mL | MIC (S. aureus; Staphylococcus aureus, ATCC6538P, ATCC 6538P): 0.03 µg/mL (≈ 0.0662 µM) | MIC (S. aureus; Staphylococcus aureus, ATCC9144, ATCC 9144, + 4% albumin): 0.125 µg/mL | MIC (S. aureus; Staphylococcus aureus, ATCC9144, ATCC 9144): ≤ 0.004 µg/mL | MIC (S. aureus; Staphylococcus aureus, ATCC10390, ATCC 10390): 0.03 µg/mL (≈ 0.0662 µM) | MIC (S. aureus; Staphylococcus aureus, ATCC13709, ATCC 13709): 0.03 µg/mL (≈ 0.0662 µM) | MIC (S. aureus; Staphylococcus aureus, ATCC19636, Smith, ATCC 19636): 0.03 µg/mL (≈ 0.0662 µM) | MIC (S. aureus; Staphylococcus aureus, ATCC27660, ATCC 27660): 0.03 µg/mL (≈ 0.0662 µM) | MIC (S. aureus; Staphylococcus aureus, ATCC29213, ATCC 29213 + 50% serum): 1 µg/mL | MIC (S. aureus; Staphylococcus aureus, ATCC29213, ATCC 29213): 0.03 µg/mL (≈ 0.0662 µM) | MIC (S. aureus; Staphylococcus aureus, ATCC 33591 / MRSA, MRSA (ATCC 33591)): 0.03 µg/mL (≈ 0.0662 µM) | MIC (S. aureus; Staphylococcus aureus, ATCC 33592 / MRSA, MRSA (ATCC 33592)): 0.03 µg/mL (≈ 0.0662 µM) | MIC (S. aureus; Staphylococcus aureus, ATCC33594, ATCC 33594): 0.03 µg/mL (≈ 0.0662 µM) | MIC (S. aureus; Staphylococcus aureus, ATCC49230, ATCC 49230): 0.03 µg/mL (≈ 0.0662 µM) | MIC (S. aureus; Staphylococcus aureus, MRSA / NRS 17 / VISA, VISA MRSA (NRS17)): 1 µg/mL (≈ 2.21 µM) | MIC (S. aureus; Staphylococcus aureus, MRSA / NRS 22 / USA600, USA600 MRSA GISA (NRS22)): 4 µg/mL (≈ 8.82 µM) | MIC (S. aureus; Staphylococcus aureus, MRSA / NRS 71, MRSA (NRS71)): 1 µg/mL (≈ 2.21 µM) | MIC (S. aureus; Staphylococcus aureus, MRSA / NRS 100, MRSA (COL; NRS100)): 0.03 µg/mL (≈ 0.0662 µM) | MIC (S. aureus; Staphylococcus aureus, MRSA / NRS 119, MRSA Linezolid-R (NRS119)): 1 µg/mL (≈ 2.21 µM) | MIC (S. aureus; Staphylococcus aureus, MRSA / NRS 123 / USA400, USA400 MRSA (NRS123)): 0.03 µg/mL (≈ 0.0662 µM) | MIC (S. aureus; Staphylococcus aureus, MRSA / NRS 127, LZD-NS MRSA (NRS127)): 4 µg/mL (≈ 8.82 µM) | MIC (S. aureus; Staphylococcus aureus, MRSA / NRS 269, TGC-NS MRSA (NRS269)): 2 µg/mL (≈ 4.41 µM) | MIC (S. aureus; Staphylococcus aureus, MRSA / NRS 271, Linezolid-R MRSA (NRS271)): 0.5 µg/mL (≈ 1.1 µM) | MIC (S. aureus; Staphylococcus aureus, MRSA / NRS 382 / USA100, USA100 MRSA (NRS382)): 0.5 µg/mL (≈ 1.1 µM) | MIC (S. aureus; Staphylococcus aureus, MRSA / NRS 383 / USA200, USA200 MRSA (NRS383)): 1 µg/mL (≈ 2.21 µM) | MIC (S. aureus; Staphylococcus aureus, MRSA / NRS 384 / USA300, USA300 MRSA (NRS384)): 0.03 µg/mL (≈ 0.0662 µM) | MIC (S. aureus; Staphylococcus aureus, MRSA / NRS 385 / USA500, USA500 MRSA (NRS385)): 0.5 µg/mL (≈ 1.1 µM) | MIC (S. aureus; Staphylococcus aureus, MRSA / NRS 386 / USA700, USA700 MRSA (NRS386)): 0.25 µg/mL (≈ 0.551 µM) | MIC (S. aureus; Staphylococcus aureus, MRSA / NRS 387 / USA800, USA800 MRSA (NRS387)): 0.03 µg/mL (≈ 0.0662 µM) | MIC (S. aureus; Staphylococcus aureus, MRSA / NRS 402 / VISA, VISA DAP-NS MRSA (NRS402)): 1 µg/mL (≈ 2.21 µM) | MIC (S. aureus; Staphylococcus aureus, MRSA / NRS 483, USA1000 MRSA (NRS483)): 0.03 µg/mL (≈ 0.0662 µM) | MIC (S. aureus; Staphylococcus aureus, MRSA / NRS 484, USA1100 MRSA (NRS484)): 0.03 µg/mL (≈ 0.0662 µM) | MIC (S. aureus; Staphylococcus aureus, MRSA / USA300, USA300 MRSA (FPR3757)): 0.5 µg/mL (≈ 1.1 µM) | MIC (S. aureus; Staphylococcus aureus, MRSA / USA300, USA300 MRSA (TCH1516)): 0.03 µg/mL (≈ 0.0662 µM) | MIC (S. aureus; Staphylococcus aureus, MRSA / USA400, USA400 MRSA (MW2)): 0.03 µg/mL (≈ 0.0662 µM) | MIC (S. aureus; Staphylococcus aureus, MRSA / VISA, MRSA VISA (CDC #0219)): 4 µg/mL (≈ 8.82 µM)
